This note sets out measurements from patent US11505574B2, “Modulation of P53 for the treatment of cancer” (THE REGENTS OF THE UNIVERSITY OF CALIFORNIA, priority 2016, dated 2022).

This assay has as its system p53. The assay is described as follows: Western blot for p53 and downstream targets in MCF7 cells treated with peptides. The class given is cell-based, human. Conditions: MCF7 cells.

“RQIKIWFQNRRMKWKKYPYAASPA [Pen-Pep8, Penetratin fused to Pep8]”: the “p53 expression with low dose doxorubicin (Western blot)” value (2.5 μM for 20 minutes then 6.25 ng/mL doxorubicin 18 hours (FIG. 34B)) is listed as “robust p53 expression”. Besides, the “p53 expression (Western blot)” value (2.5 μM, 18 hours (FIG. 32C)) is listed as “induced p53 expression”. The “p53 protein levels (Western blot)” value (2.5 μM, 18 hours (FIG. 37B)) is recorded as “increased p53 protein levels”.
